In patent US9751854B2 (Millennium Pharmaceuticals, Inc., priority 2014, dated 2017):

Target: human VPS34 (Homo sapiens (Human), UniProt Q8NEB9)
Test: Human VPS34 enzyme assay (Adapta TR-FRET ADP detection)
Type: biochemical
Conditions: IC50 range class

Sequence of human VPS34 (Q8NEB9 whole entry): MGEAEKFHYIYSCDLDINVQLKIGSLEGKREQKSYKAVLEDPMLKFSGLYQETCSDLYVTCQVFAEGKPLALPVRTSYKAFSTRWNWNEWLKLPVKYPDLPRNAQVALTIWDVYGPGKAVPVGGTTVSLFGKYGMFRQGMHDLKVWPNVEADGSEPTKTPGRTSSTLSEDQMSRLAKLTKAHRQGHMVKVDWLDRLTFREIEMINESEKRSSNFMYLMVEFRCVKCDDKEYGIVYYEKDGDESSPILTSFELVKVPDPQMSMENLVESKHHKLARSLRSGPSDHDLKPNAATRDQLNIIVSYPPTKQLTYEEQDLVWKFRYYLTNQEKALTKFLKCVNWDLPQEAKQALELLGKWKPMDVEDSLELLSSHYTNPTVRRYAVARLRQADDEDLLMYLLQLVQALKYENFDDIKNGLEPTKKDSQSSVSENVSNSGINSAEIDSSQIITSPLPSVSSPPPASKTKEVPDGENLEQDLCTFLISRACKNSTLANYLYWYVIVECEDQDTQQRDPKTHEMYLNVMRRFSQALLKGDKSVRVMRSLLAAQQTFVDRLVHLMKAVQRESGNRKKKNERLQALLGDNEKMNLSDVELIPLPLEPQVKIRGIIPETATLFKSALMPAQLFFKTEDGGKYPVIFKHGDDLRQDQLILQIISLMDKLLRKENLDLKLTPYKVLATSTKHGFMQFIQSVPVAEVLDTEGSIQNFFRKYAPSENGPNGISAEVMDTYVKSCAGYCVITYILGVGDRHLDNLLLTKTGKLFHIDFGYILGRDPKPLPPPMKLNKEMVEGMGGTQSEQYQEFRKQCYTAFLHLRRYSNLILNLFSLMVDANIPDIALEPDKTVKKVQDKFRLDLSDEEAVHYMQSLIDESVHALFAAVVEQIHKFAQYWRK

Row | SMILES | IC50
1 | CC(=O)Nc1cc(-c2cnc(Cl)c(N3CCCNS3(=O)=O)c2C)ccn1 [Compound I-473, N-[6-chloro-5-(1,1-dioxido-1,2,6-thiadiazinan-2-yl)-4-methyl-3,4′-bipyridin-2′-yl]acetamide] | 10 to 50 nM
2 | CNc1ncc(-c2ccnc(NC(C)=O)c2)cc1C(=O)N(C)C12CC(C1)C2 [Compound I-449, 2′-acetamido-N-(bicyclo[1.1.1]pent-1-yl)-N-methyl-6-(methylamino)-3,4′-bipyridine-5-carboxamide] | 10 to 50 nM
3 | CNc1ncc(-c2ccnc(NC(C)=O)c2)cc1N(CC1CC1)S(C)(=O)=O [Compound I-141] | < 10 nM
4 | CC(=O)Nc1cc(-c2ccnc(Nc3ccnc(C)n3)c2)cn2nccc12 [Compound I-450, N-(6-{2-[(2-methylpyrimidin-4-yl)amino]pyridin-4-yl}pyrazolo[1,5-a]pyridin-4-yl)acetamide] | 10 to 50 nM
5 | COc1cc(C)ccc1S(=O)(=O)Nc1cc(-c2ccnc(NC(C)=O)c2)cnc1C [Compound I-142, N-(5-{[(2-methoxy-4-methylphenyl)sulfonyl]amino}-6-methyl-3,4′-bipyridin-2′-yl)acetamide] | < 10 nM
6 | CCOC(=O)Nc1cc(-c2cnc(C)c(NS(=O)(=O)c3ccc(Cl)cc3F)c2)ccn1 [Compound I-456, ethyl (5-{[(4-chloro-2-fluorophenyl)sulfonyl]amino}-6-methyl-3,4′-bipyridin-2′-yl}carbamate] | < 10 nM
7 | CC(=O)Nc1cc(-c2cc(NS(=O)(=O)c3ccc(F)cc3F)c3ncnn3c2)ccn1 [Compound I-340, N-[4-(8-{[(2,4-difluorophenyl)sulfonyl]amino}[1,2,4]triazolo[1,5-a]pyridin-6-yl)pyridin-2-yl]acetamide] | 10 to 50 nM
8 | CC(=O)Nc1cc(-c2cnc(C)c(NS(=O)(=O)c3cn(C)nc3C(F)(F)F)c2)ccn1 [Compound I-18, N-[6-methyl-5-({[1-methyl-3-(trifluoromethyl)-1H-pyrazol-4-yl]sulfonyl}amino)-3,4′-bipyridin-2′-yl]acetamide] | < 10 nM
9 | CC(=O)Nc1cc(-c2cnc(N)c(S(=O)(=O)Nc3ccccc3)c2)ccn1 [Compound I-43] | < 10 nM
10 | CNc1ncc(-c2ccnc(NC(C)=O)c2)cc1S(=O)(=O)Nc1ccccc1 [Compound I-100, N-[6-(methylamino)-5-(phenylsulfamoyl)-3,4′-bipyridin-2′-yl]acetamide] | < 10 nM
11 | COc1ncc(-c2ccnc(NC(C)=O)c2)cc1S(=O)(=O)NC1CCC1 [Compound I-426, N-[5-(cyclobutylsulfamoyl)-6-methoxy-3,4′-bipyridin-2′-yl]acetamide] | 10 to 50 nM
12 | COC(=O)Nc1cc(-c2cnc3ccn(CC4CC4)c3c2)ccn1 [Compound I-42, Methyl {4-[1-(cyclopropylmethyl)-1H-pyrrolo[3,2-b]pyridin-6-yl]pyridin-2-yl}carbamate] | 10 to 50 nM
13 | Cc1c(-c2ccnc(Nc3ccnc(C4CC4)n3)c2)cnc(Cl)c1C(=O)N1CC(C)(C)C1 [Compound I-466, (6-chloro-2′-[(2-cyclopropylpyrimidin-4-yl)amino]-4-methyl-3,4′-bipyridin-5-yl](3,3-dimethylazetidin-1-yl)methanone] | 10 to 50 nM
14 | N=C(N)NC(=O)c1cc(-c2ccnc(Nc3ccncn3)c2)cnc1N [Compound I-216, 6-Amino-N-carbamimidoyl-2′-(pyrimidin-4-ylamino)-3,4′-bipyridine-5-carboxamide] | 50 to 100 nM
15 | CC(=O)Nc1cc(-c2cncc(C(=O)/C=C/c3ccc(F)cc3)c2)ccn1 [Compound I-198, N-[5-[(2E)-3-(4-fluorophenyl)prop-2-enoyl]-3,4′-bipyridin-2′-yl}acetamide] | > 100 nM
16 | CC(=O)Nc1cc(-c2cnc3ccn(S(=O)(=O)C4CC4)c3c2)ccn1 [Compound I-199, N-{4-[1-(cyclopropylsulfonyl)-1H-pyrrolo[3,2-b]pyridin-6-yl]pyridin-2-yl}acetamide] | < 10 nM
17 | CC(=O)Nc1cc(-c2cncc(N(C)S(C)(=O)=O)c2)ccn1 [Compound I-20, N-{5-[methyl(methylsulfonyl)amino]-3,4′-bipyridin-2′-yl}acetamide] | 50 to 100 nM
18 | CC(=O)Nc1cc(-c2cncc(S(=O)(=O)N3CCCC3)c2)ccn1 [Compound I-47, N-[5-(pyrrolidin-1-ylsulfonyl)-3,4′-bipyridin-2′-yl]acetamide] | 10 to 50 nM
19 | CC(=O)Nc1cc(-c2cnc(N)c(S(=O)(=O)Cc3cccnc3)c2)ccn1 [Compound I-205, N-{6-amino-5-[(pyridin-3-ylmethyl)sulfonyl]-3,4′-bipyridin-2′-yl}acetamide] | 10 to 50 nM
20 | CCS(=O)(=O)c1cc(-c2ccnc(NC(C)=O)c2)cnc1N [Compound I-69, N-[6-amino-5-(ethylsulfonyl)-3,4′-bipyridin-2′-yl]acetamide] | 10 to 50 nM
21 | Cc1nccc(Nc2cc(-c3cnc(C)c(C(=S)N4CCC4)c3)ccn2)n1 [Compound I-223, Azetidin-1-yl{6-methyl-2′-[(2-methylpyrimidin-4-yl)amino]-3,4′-bipyridin-5-yl}methanethione] | 10 to 50 nM
22 | CC(=O)Nc1cc(-c2cncc(S(=O)(=O)N3CCC3)c2)ccn1 [Compound I-474, N-[5-(azetidin-1-ylsulfonyl)-3,4′-bipyridin-2′-yl]acetamide] | 10 to 50 nM
23 | Cc1nc(Nc2cc(-c3cnc(C)c(NS(=O)(=O)N(C)C)c3)ccn2)ccc1C#N [Compound I-229, N-{2′-[(5-cyano-6-methylpyridin-2-yl)amino]-6-methyl-3,4′-bipyridin-5-yl}-N,N-dimethylsulfuric diamide] | < 10 nM
24 | Cc1nccc(Nc2cc(-c3cnc(Cl)c(C(=O)O)c3C)ccn2)n1 [Compound I-402, 6-chloro-4-methyl-2′-[(2-methylpyrimidin-4-yl)amino]-3,4′-bipyridine-5-carboxylic acid] | 10 to 50 nM
25 | CCCCS(=O)(=O)Nc1cc(-c2ccnc(NC(C)=O)c2)cnc1C [Compound I-373, N-{5-[(butylsulfonyl)amino]-6-methyl-3,4′-bipyridin-2′-yl}acetamide] | 10 to 50 nM
26 | Cc1nc(Nc2cc(-c3cnc(C)c(NS(=O)(=O)c4ccc(F)cc4F)c3)ccn2)nc(C2CC2)n1 [Compound I-382, N-{2′-[(4-cyclopropyl-6-methyl-1,3,5-triazin-2-yl)amino]-6-methyl-3,4′-bipyridin-5-yl}-2,4-difluorobenzenesulfonamide] | < 10 nM
27 | CC(=O)Nc1cc(-c2cnc(C)c(N3CCCNS3(=O)=O)c2)ccn1 [Compound I-387, N-[5-(1,1-dioxido-1,2,6-thiadiazinan-2-yl)-6-methyl-3,4′-bipyridin-2′-yl]acetamide] | 10 to 50 nM
28 | CC(=O)Nc1cc(-c2cnc(C)c(NS(=O)(=O)c3ccc(C#N)cc3F)c2)ccn1 [Compound I-356, N-(5-{[(4-cyano-2-fluorophenyl)sulfonyl]amino}-6-methyl-3,4′-bipyridin-2′-yl)acetamide] | < 10 nM
29 | CC(=O)Nc1cc(-c2cnc3c(c2)NS(=O)(=O)N3CC2CC2)ccn1 [Compound I-68, N-{4-[3-(cyclopropylmethyl)-2,2-dioxido-1,3-dihydro[1,2,5]thiadiazolo[3,4-b]pyridin-6-yl)pyridin-2-yl}acetamide] | > 100 nM

Next, values leading:

Row | IC50 | SMILES
30 | < 10 nM | CC(=O)Nc1cc(-c2cnc(N)c(C(=O)NC34CC(C3)C4)c2)ccn1 [Compound I-187, 2′-acetamido-6-amino-N-(bicyclo[1.1.1]pent-1-yl)-3,4′-bipyridine-5-carboxamide]
31 | 10 to 50 nM | CC(=O)Nc1cc(-c2cnc(N)c(C(=O)N3CCC(F)(F)C3)c2)ccn1 [Compound I-60, N-{6-amino-5-[(3,3-difluoropyrrolidin-1-yl)carbonyl]-3,4′-bipyridin-2′-yl}acetamide]
32 | > 100 nM | CC(=O)Nc1cc(-c2cnc3[nH]c(C)nc3c2)ccn1 [Compound I-66, N-[4-(2-methyl-3H-imidazo[4,5-b]pyridin-6-yl)pyridin-2-yl]acetamide]
33 | 50 to 100 nM | CCNC(=O)Nc1cc(-c2ccnc(Nc3ccnc(C)n3)c2)cnc1C [Compound I-367, 1-ethyl-3-{6-methyl-2′-[(2-methylpyrimidin-4-yl)amino]-3,4′-bipyridin-5-yl}urea]
34 | 10 to 50 nM | CC(=O)Nc1cc(-c2cnc(C)c(NS(=O)(=O)c3cccc(F)c3F)c2)ccn1 [Compound I-377, N-(5-{[(2,3-difluorophenyl)sulfonyl]amino}-6-methyl-3,4′-bipyridin-2′-yl)acetamide]
35 | 10 to 50 nM | CC(=O)Nc1cc(-c2cnc(N)c(S(=O)(=O)NCC3CC3)c2)ccn1 [Compound I-108, N-(6-amino-5-[(cyclopropylmethyl)sulfamoyl]-3,4′-bipyridin-2′-yl]acetamide]
36 | 10 to 50 nM | Cc1cnc(NC(=O)C2CC2)cc1-c1cnc(C)c(NS(=O)(=O)c2ccc(F)cc2F)c1 [Compound I-4, N-(5-{[(2,4-difluorophenyl)sulfonyl]amino}-5′,6-dimethyl-3,4′-bipyridin-2′-yl)cyclopropanecarboxamide]
37 | < 10 nM | CC(=O)Nc1cc(-c2cnc(N)c(C(=O)N3Cc4ccccc4C3)c2)ccn1 [Compound I-125]
38 | 10 to 50 nM | CC(=O)Nc1cc(-c2cnc(N(C)C)c(C(=O)N(C)C)c2)ccn1 [Compound I-162, 2′-acetamido-6-(dimethylamino)-N,N-dimethyl-3,4′-bipyridine-5-carboxamide]
39 | 10 to 50 nM | Cc1nccc(Nc2cc(-c3cnc(C)c(C(=O)N4CCCCC4)c3)ccn2)n1 [Compound I-262, [6-methyl-2′-[(2-methylpyrimidin-4-yl)amino]-3,4′-bipyridin-5-yl](piperidin-1-yl)methanone]
40 | > 100 nM | CC(=O)Nc1cc(-c2cnc(C)c(N3CCCNC3=O)c2)ccn1 [Compound I-460, N-[6-methyl-5-(2-oxotetrahydropyrimidin-1(2H)-yl)-3,4′-bipyridin-2′-yl]acetamide]
41 | 10 to 50 nM | CC(=O)Nc1cc(-c2cnc(Cl)c(NS(=O)(=O)c3ccc(C(F)(F)F)cc3Cl)c2C)ccn1 [Compound I-333, N-(6-chloro-5-(2-chloro-4-(trifluoromethyl)phenylsulfonamido)-4-methyl-[3,4′-bipyridin]-2′-yl)acetamide]
42 | < 10 nM | CC(=O)Nc1cc(-c2cnc(C)c(NS(=O)(=O)c3ccc(C(F)(F)F)nc3)c2)ccn1 [Compound I-1]
